As usually defined, the inhibition is how much of the control response was suppressed. In general, half-life refers to the time in which the quantity being followed falls by half. As a reminder, the IC50 is the midpoint of a concentration-inhibition curve.

From ChEMBL document CHEMBL5532651, “HDAC specificity and kinase off-targeting by purine-benzohydroxamate anti-hematological tumor agents” (Eur J Med Chem, 2024) come the findings set out here.

Calls of active or inactive are those of the source. No cut-off for these calls is given here.

Series [1] addresses T1, Histone deacetylase 1 (Homo sapiens, UniProt Q13547). In words: Inhibition of HDAC1 in human NAMALVA cells assessed as increase in acetyl-histone H3 level at IC50 incubated for 48 hrs by Western blot analysis. Format: cell-based.
The nature of series [2]: Stability in mouse liver microsome assessed as half life at 1 uM measured for 60 mins by LC-MS/MS analysis. It counts as ADME. The conditions noted are these: liver microsomes. Background: Liver microsomes are a subcellular fraction often used to study metabolism.
For series [3], the target named is T2, Protein deacetylase HDAC6 (Homo sapiens) (UniProt Q9UBN7).
T2 sequence (whole entry): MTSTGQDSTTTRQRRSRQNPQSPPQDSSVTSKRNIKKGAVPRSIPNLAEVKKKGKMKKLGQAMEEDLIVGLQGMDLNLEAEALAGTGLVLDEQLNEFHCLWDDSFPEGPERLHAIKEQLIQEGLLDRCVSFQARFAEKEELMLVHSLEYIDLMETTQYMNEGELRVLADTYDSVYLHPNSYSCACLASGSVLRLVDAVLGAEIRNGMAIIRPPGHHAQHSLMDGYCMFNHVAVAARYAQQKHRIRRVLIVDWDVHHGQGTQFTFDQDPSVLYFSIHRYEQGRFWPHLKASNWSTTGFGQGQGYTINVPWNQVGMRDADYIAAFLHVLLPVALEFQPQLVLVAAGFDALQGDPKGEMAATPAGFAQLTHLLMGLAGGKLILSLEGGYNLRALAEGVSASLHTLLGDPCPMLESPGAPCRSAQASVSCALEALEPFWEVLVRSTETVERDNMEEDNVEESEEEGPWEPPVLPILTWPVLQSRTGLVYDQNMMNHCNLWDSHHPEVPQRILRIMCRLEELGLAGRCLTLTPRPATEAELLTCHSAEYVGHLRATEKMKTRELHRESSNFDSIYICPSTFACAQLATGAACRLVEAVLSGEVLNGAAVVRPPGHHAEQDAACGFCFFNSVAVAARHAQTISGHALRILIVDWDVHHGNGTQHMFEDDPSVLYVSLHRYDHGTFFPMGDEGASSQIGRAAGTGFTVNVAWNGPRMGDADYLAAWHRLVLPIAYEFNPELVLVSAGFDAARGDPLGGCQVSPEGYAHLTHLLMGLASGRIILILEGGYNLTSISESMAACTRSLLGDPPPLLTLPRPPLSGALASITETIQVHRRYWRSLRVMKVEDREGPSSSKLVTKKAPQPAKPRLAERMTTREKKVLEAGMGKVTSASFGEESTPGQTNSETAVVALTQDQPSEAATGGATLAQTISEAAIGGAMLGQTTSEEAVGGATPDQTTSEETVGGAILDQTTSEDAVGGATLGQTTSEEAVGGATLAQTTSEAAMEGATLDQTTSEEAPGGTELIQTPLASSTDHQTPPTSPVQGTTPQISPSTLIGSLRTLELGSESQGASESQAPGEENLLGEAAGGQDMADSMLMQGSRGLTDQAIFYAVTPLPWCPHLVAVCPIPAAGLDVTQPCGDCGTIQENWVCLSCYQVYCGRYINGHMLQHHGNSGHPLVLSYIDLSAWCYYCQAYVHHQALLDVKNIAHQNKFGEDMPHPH
In words: Inhibition of HDAC6 in human Jurkat cells assessed as increase in acetyl-histone H3 level at IC50 incubated for 48 hrs by Western blot analysis. Format: cell-based. For orientation: A western blot detects proteins with antibodies after separation by electrophoresis.

In series [4] the target is T2, Protein deacetylase HDAC6 (Homo sapiens). In words: Inhibition of HDAC6 in human U-937 cells assessed as increase in acetyl-histone H3 level at IC50 incubated for 48 hrs by Western blot analysis. It counts as cell-based.
A further series deals with CYP2D6 (Homo sapiens, UniProt P10635). In words: Inhibition of CYP2D6 in liver microsomes (unknown origin) at 10 uM incubated for 10 mins relative to control. It counts as ADME, Microsome.
For a further series, the target named is CYP2C9 (Homo sapiens, UniProt P11712). In words: Inhibition of CYP2C9 in liver microsomes (unknown origin) at 10 uM incubated for 10 mins relative to control. Format: ADME, Microsome.
The nature of series [5]: Stability in human liver microsome assessed as intrinsic clearance at 1 uM measured for 60 mins by LC-MS/MS analysis. It counts as ADME. The conditions noted are these: liver microsomes, read-out: CLH.
Series [6] addresses T2, Protein deacetylase HDAC6 (Homo sapiens). In words: Inhibition of HDAC6 in human Jurkat cells assessed as increase in acetyl-alpha-tubulin level at IC50 incubated for 48 hrs by Western blot analysis. It counts as cell-based.
For series [7], the target named is T1, Histone deacetylase 1. In words: Inhibition of HDAC1 in human Jurkat cells assessed as increase in acetyl-alpha-tubulin level at IC50 incubated for 48 hrs by Western blot analysis. It counts as cell-based.
In series [8] the target is T1, Histone deacetylase 1. Kind of series: Inhibition of HDAC1 in human U-937 cells assessed as increase in acetyl-alpha-tubulin level at IC50 incubated for 48 hrs by Western blot analysis. It counts as cell-based.
Series [9] addresses T2, Protein deacetylase HDAC6 (Homo sapiens). In words: Inhibition of HDAC6 in human U-937 cells assessed as increase in acetyl-alpha-tubulin level at IC50 incubated for 48 hrs by Western blot analysis. Format: cell-based.
Series [10] is described as follows: Selectivity index, ratio of IC50 for human HS5 cells to IC50 for human Jurkat cells. It counts as functional.
For another series, the system named is MCF7. Kind of series: cells. Format: functional, cell-based. The conditions noted are these: Homo sapiens.
For series [11], the target named is Phosphatidylinositol 4,5-bisphosphate 3-kinase catalytic subunit delta isoform (Homo sapiens) (UniProt O00329). Kind of series: Inhibition of PI3Kd (unknown origin) at 100 uM preincubated for 20 mins followed by 33P-ATP addition measured after 2 hrs by HotSpot kinase assay relative to control. The conditions noted are these: time 140.0 min.
Series [12] has as its target Phosphatidylinositol 4,5-bisphosphate 3-kinase catalytic subunit beta isoform (Homo sapiens) (UniProt P42338). In words: Inhibition of PI3Kb (unknown origin) at 100 uM preincubated for 20 mins followed by 33P-ATP addition measured after 2 hrs by HotSpot kinase assay relative to control. The conditions noted are these: time 140.0 min.
For series [13], the system named is Jurkat. In words: Inhibition of cell proliferation of human Jurkat cells assessed as reduction in Ki-67 expression at IC50 measured after 48 hrs by flow cytometry. It counts as functional, cell-based.
For series [14], the target named is T1, Histone deacetylase 1. Kind of series: Inhibition of HDAC1 in human Jurkat cells assessed as increase in acetyl-histone H3 level at IC50 incubated for 48 hrs by Western blot analysis. Format: cell-based.
Series [15] has as its system U-937. Kind of series: Induction of apoptosis in human U-937 cells at IC50 measured after 48 hrs by flow cytometry. It counts as functional, cell-based. For orientation: In flow cytometry, cells or beads pass a laser one at a time.
For series [16], the system named is Jurkat. Kind of series: Cytotoxicity against human Jurkat cells assessed as cell growth inhibition at 0.02 to 1.3 uM by MTT assay. It counts as functional, cell-based. The conditions noted are these: dose 0.02-1.3 µM, time lower 24.0 hrs, time upper […], TDE = time-dependent effect.
Series [17] in a line: Selectivity index, ratio of IC50 for human leukocytes cells to IC50 for human NAMALVA cells. Format: functional.
Series [18] has as its system U-937. Kind of series: Cytotoxicity against human U-937 cells assessed as cell growth inhibition at 1.6 to 3.6 uM by MTT assay. It counts as functional, cell-based. The conditions noted are these: dose 1.6-3.6 µM, time lower 24.0 hrs, time upper […], TDE = time-dependent effect.
The subject of series [19] is U-937. In words: Cytotoxicity against human U-937 cells assessed as cell growth inhibition incubated for 24 to 72 hrs by MTT assay. The settings on record: time lower 24.0 hrs, time upper […]. Format: functional, cell-based.
The nature of series [20]: Selectivity index, ratio of IC50 for human HCT-116 cells to IC50 for human Jurkat cells. Format: functional.
Series [21] can be described thus: Selectivity index, ratio of IC50 for human HCT-116 cells to IC50 for human NAMALVA cells. Format: functional.
The nature of series [22]: Selectivity index, ratio of IC50 for human HS5 cells to IC50 for human NAMALVA cells. It counts as functional.

T1 sequence (Q13547 whole entry): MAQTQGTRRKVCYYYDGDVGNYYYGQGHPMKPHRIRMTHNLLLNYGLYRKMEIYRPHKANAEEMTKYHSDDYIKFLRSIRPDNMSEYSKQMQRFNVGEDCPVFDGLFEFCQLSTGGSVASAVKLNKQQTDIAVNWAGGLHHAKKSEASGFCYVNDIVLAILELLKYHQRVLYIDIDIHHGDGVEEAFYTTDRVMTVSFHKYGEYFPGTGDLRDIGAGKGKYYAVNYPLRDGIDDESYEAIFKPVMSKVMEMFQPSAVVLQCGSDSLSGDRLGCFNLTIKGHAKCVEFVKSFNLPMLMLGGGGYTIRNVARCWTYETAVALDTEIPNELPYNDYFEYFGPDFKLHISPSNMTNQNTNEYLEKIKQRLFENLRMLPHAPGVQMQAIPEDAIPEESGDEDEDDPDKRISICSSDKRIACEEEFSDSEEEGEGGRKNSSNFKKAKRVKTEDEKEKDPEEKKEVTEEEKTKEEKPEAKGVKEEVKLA
Chain of CYP2D6 (P10635 whole entry): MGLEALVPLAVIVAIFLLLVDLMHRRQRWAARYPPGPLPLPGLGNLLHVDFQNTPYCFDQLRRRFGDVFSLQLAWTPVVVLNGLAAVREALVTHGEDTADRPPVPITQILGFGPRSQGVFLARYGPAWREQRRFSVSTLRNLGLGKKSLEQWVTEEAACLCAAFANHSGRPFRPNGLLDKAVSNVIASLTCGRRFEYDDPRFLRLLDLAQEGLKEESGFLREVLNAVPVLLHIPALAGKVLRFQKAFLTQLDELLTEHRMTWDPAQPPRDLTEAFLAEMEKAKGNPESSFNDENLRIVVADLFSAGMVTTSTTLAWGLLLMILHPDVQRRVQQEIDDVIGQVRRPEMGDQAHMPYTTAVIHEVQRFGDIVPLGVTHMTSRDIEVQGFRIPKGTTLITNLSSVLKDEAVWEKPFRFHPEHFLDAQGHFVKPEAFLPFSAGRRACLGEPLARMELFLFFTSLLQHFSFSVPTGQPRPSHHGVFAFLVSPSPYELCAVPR
Chain of CYP2C9 (P11712 whole entry): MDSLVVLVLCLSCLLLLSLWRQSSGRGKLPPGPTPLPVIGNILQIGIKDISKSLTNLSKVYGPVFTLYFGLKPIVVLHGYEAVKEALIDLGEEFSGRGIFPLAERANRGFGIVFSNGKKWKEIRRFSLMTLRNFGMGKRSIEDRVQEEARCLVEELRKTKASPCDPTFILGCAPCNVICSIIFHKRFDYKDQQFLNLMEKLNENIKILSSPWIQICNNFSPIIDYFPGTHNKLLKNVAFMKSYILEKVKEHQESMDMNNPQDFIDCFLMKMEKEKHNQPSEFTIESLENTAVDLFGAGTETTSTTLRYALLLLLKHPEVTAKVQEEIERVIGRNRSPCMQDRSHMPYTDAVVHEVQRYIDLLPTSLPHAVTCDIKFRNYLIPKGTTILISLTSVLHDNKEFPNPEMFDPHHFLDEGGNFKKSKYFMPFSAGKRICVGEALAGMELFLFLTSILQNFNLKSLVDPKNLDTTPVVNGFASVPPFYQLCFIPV
Chain of Phosphatidylinositol 4,5-bisphosphate 3-kinase catalytic subunit delta isoform (Homo sapiens) (O00329 whole entry, canonical isoform): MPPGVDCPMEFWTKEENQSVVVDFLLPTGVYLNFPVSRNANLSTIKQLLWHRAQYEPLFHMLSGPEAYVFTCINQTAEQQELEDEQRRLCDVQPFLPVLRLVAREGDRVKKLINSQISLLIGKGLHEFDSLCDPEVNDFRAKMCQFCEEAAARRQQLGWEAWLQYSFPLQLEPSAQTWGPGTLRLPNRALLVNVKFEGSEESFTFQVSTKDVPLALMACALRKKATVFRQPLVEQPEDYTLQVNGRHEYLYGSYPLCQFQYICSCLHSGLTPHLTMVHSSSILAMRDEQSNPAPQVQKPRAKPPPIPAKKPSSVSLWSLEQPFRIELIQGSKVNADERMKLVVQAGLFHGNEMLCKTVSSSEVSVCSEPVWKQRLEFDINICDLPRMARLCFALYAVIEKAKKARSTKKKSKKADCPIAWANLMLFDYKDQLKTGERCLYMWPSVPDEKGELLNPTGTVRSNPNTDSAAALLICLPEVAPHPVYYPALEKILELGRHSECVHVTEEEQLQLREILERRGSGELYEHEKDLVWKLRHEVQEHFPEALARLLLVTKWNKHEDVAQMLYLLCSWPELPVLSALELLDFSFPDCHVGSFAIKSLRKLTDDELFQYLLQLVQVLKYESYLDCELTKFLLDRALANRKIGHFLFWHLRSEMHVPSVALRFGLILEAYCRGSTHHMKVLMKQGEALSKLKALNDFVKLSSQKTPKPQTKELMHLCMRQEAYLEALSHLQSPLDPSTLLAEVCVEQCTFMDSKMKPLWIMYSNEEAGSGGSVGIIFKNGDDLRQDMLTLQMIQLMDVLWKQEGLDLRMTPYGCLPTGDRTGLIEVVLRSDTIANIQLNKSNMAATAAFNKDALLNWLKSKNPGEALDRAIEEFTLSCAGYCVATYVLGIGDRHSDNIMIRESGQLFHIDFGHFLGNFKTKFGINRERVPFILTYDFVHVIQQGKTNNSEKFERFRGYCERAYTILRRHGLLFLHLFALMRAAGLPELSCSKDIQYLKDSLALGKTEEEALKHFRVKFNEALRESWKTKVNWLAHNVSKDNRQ
Chain of Phosphatidylinositol 4,5-bisphosphate 3-kinase catalytic subunit beta isoform (Homo sapiens) (P42338 whole entry, looked up, canonical isoform): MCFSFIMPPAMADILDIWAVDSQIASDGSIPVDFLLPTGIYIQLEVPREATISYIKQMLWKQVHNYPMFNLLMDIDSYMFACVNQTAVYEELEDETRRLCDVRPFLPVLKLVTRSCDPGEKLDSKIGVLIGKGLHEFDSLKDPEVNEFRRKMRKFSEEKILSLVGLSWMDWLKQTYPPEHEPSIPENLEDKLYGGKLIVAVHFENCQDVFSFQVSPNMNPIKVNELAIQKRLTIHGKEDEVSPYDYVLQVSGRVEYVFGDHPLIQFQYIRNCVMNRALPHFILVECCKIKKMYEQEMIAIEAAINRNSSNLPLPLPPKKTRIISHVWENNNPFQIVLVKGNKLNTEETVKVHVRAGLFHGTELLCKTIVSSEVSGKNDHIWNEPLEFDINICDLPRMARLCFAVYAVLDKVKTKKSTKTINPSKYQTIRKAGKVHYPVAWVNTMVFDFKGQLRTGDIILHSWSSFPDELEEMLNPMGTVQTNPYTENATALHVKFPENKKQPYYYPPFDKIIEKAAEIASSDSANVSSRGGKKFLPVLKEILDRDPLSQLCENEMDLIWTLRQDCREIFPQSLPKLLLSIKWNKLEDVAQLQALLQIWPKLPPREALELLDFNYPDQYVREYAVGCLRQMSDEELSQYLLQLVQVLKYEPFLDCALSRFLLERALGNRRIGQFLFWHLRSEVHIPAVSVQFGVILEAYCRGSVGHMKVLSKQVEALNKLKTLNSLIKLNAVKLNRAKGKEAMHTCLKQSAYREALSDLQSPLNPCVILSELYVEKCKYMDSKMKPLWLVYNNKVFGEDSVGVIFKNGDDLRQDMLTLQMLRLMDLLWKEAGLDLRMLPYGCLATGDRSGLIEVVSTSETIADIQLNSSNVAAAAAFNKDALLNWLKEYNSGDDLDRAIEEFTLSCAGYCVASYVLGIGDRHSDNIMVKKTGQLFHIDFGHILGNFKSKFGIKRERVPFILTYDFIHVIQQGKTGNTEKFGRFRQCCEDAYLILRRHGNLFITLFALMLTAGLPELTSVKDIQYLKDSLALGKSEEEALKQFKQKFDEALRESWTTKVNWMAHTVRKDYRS

`O=C(NO)c1ccc(Cn2cnc3c(Nc4ccc(F)c(Cl)c4)ncnc32)cc1`: the inhibition entry (on Histone deacetylase 1 [1]; in series [3]; in series [4]; in series [6]; at Histone deacetylase 1 [7]; at Histone deacetylase 1 [8]) was “Active” each time. For the same molecule, the inhibition result (in series [9]; with Jurkat [13]; on Histone deacetylase 1 [14]) was “Active” in each case. The half-life at 1 µM in series [2] worked out at 35 min. Further, the inhibition at 10 min, 10 µM at CYP2D6 turned out to be 10%; on CYP2C9, 52%. In addition, the microsomal CLint at 1 µM in [5] is less than 6 µL/min/mg. Moreover, the “Ratio IC50” value in series [10] is listed as “>=100”; in [17] it was “>=100”; in [20], 83; in series [21] it was 83; in series [22], “>=100”. The same molecule showed an IC50 in the series with MCF7 of 9.3 µM. Moreover, the inhibition was 51.2% in series [11]; 62% in series [12]; “Tde” in the series with Jurkat [16]; “Tde” in the series with U-937 [18]; “Dose-Dependent Effect” with U-937 [19]. Besides, the outcome in the series with U-937 [15] was Active.
On to `COc1ccc(Nc2ncnc3c2ncn3Cc2ccc(C(=O)NO)cc2)cc1`, for which the inhibition entry (on Histone deacetylase 1 [1]; in series [3]; in [4]; in series [6]; on Histone deacetylase 1 [7]; on Histone deacetylase 1 [8]) was “Active” throughout. Besides, the inhibition result (in [9]; with Jurkat [13]; at Histone deacetylase 1 [14]) was “Active” in each case. In addition, in [2], the half-life at 1 µM was 50 min. Besides, the inhibition at 10 min, 10 µM is 10% against CYP2D6 and 34% against CYP2C9. Moreover, the microsomal CLint at 1 µM in series [5] was less than 6 µL/min/mg. The “Ratio IC50” value in [10] is listed as “>=100”; in series [17] it was “>=100”; in series [20] it was 83; in series [21], 83; in series [22], “>=100”. In addition, in the series on MCF7, half-maximal inhibition (IC50) required 19.5 µM. Further, the result in the series on U-937 [15] was Active. The inhibition entry in the series on U-937 [19] is “Dose-Dependent Effect”.
